Source: patent publication US9079866B2, “Flap modulators” (JANSSEN PHARMACEUTICA NV, priority 2013, dated 2015)
Read-outs that look alike come from different tables or passages of the source.

Key:
human FLAP = human FLAP (Homo sapiens (Human), UniProt P20292); assay: FLAP binding assay (HTRF format); conditions: HTRF format
Procedure, shortened: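 Samples were run in duplicate on each of two plates and the plate results averaged. Read-out is the HTRF signal ratio.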

[1] = tested on: leukotriene pathway in human whole blood (LTB4 levels); assay: Human whole blood assay (A23187-stimulated LTB4); assay type: cell-based; conditions: Homo sapiens, read-out: LTB4 IC50 1:1
Procedure, shortened: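 Single-replicate data from at least one healthy donor: compound pre-incubated 15 min at 37° Celsius in 1:1 RPMI-diluted heparinised blood, followed by 30 min calcium ionophore A23187 (7 μg/mL) challenge at 37° Celsius. LTB4 in plasma quantified by kit; IC50 via 4-parameter equation.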

[2] = human FLAP wild type, average of two plates, duplicates
[3] = human whole blood diluted 1:1 in RPMI, A23187-stimulated LTB4
[4] = human whole blood diluted 1:1, A23187-stimulated

human FLAP, sequence (P20292 whole entry): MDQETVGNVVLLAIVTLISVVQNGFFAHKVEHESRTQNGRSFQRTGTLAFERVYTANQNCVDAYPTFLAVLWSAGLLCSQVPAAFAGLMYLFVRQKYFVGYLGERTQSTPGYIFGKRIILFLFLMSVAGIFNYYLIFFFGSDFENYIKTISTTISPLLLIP

Ki (human FLAP; [2])	IC50 [1, 3]	Ki (human FLAP; wild type FLAP)	IC50 [1, 4]	Structure (SMILES)
1 nM	6 nM			CC(C)(C)NS(=O)(=O)c1ccccc1-c1ccc(-c2cnc3[nH]ccc3c2)c(F)c1 [Example 367, N-tert-Butyl-3′-fluoro-4′-(1H-pyrrolo[2,3-b]pyridin-5-yl)biphenyl-2-sulfonamide]
17 nM	375 nM			CS(=O)(=O)Nc1ccccc1-c1ccc(-c2cnc3[nH]ccc3n2)c(F)c1 [Example 369, N-[3′-Fluoro-4′-(5H-pyrrolo[2,3-b]pyrazin-2-yl)biphenyl-2-yl]methanesulfonamide]
2 nM	88 nM			CN(C)S(=O)(=O)c1ccccc1-c1ccc(-c2cnc3[nH]ccc3n2)c(F)c1 [Example 370, 3′-Fluoro-N,N-dimethyl-4′-(5H-pyrrolo[2,3-b]pyrazin-2-yl)biphenyl-2-sulfonamide]
1 nM	15 nM			CC(C)(C)NS(=O)(=O)c1ccccc1-c1ccc(-c2cnc3[nH]ccc3n2)c(F)c1 [Example 371, N-tert-Butyl-3′-fluoro-4′-(5H-pyrrolo[2,3-b]pyrazin-2-yl)biphenyl-2-sulfonamide]
25 nM	31 nM			O=S(=O)(c1ccccc1-c1ccc(-c2cnc3[nH]ccc3n2)c(F)c1)N1CCCC1 [Example 372, 2-[3-Fluoro-2′-(pyrrolidin-1-ylsulfonyl)biphenyl-4-yl]-5H-pyrrolo[2,3-b]pyrazine]
1 nM	7 nM			CCN(CC)S(=O)(=O)c1ccccc1-c1ccc(-c2cnc3[nH]ccc3n2)c(F)c1 [Example 373, N,N-Diethyl-3′-fluoro-4′-(5H-pyrrolo[2,3-b]pyrazin-2-yl)biphenyl-2-sulfonamide]
1 nM	11 nM			O=S(=O)(c1ccccc1-c1ccc(-c2cnc3[nH]ccc3n2)c(F)c1)N1CCCCC1 [Example 374, 2-[3-Fluoro-2′-(piperidin-1-ylsulfonyl)biphenyl-4-yl]-5H-pyrrolo[2,3-b]pyrazine]
2 nM	31 nM			O=S(=O)(c1ccccc1-c1ccc(-c2cnc3[nH]ccc3n2)c(F)c1)N1CCOCC1 [Example 375, 2-[3-Fluoro-2′-(morpholin-4-ylsulfonyl)biphenyl-4-yl]-5H-pyrrolo[2,3-b]pyrazine]
33 nM	979 nM			CS(=O)(=O)c1ccccc1-c1ccc(-c2cnc3[nH]ccc3n2)c(F)c1 [Example 377, 2-[3-Fluoro-2′-(methylsulfonyl)biphenyl-4-yl]-5H-pyrrolo[2,3-b]pyrazine]
1 nM	33 nM			CNS(=O)(=O)c1ccccc1-c1ccc(-c2cnc3[nH]ccc3n2)c(F)c1 [Example 379, 3′-Fluoro-N-methyl-4′-(5H-pyrrolo[2,3-b]pyrazin-2-yl)biphenyl-2-sulfonamide]
5 nM	141 nM			NC1CCN(S(=O)(=O)c2ccccc2-c2ccc(-c3cnc4[nH]ccc4n3)c(F)c2)CC1 [Example 381, 1-{[3′-Fluoro-4′-(5H-pyrrolo[2,3-b]pyrazin-2-yl)biphenyl-2-yl]sulfonyl}piperidin-4-amine]
42 nM	1080 nM			CS(=O)(=O)c1ccccc1-c1ccc(-c2cnc3c(c2)OCCN3)c(F)c1 [Example 385, 7-[3-Fluoro-2′-(methylsulfonyl)biphenyl-4-yl]-3,4-dihydro-2H-pyrido[3,2-b][1,4]oxazine]
2 nM	77 nM			O=S(=O)(c1ccccc1-c1ccc(-c2cnc3c(c2)OCCN3)c(F)c1)N1CCCCC1 [Example 386, 7-[3-Fluoro-2′-(piperidin-1-ylsulfonyl)biphenyl-4-yl]-3,4-dihydro-2H-pyrido[3,2-b][1,4]oxazine]
8 nM	253 nM			NS(=O)(=O)c1ccccc1-c1ccc(-c2cnc3c(c2)OCCN3)c(F)c1 [Example 387, 4′-(3,4-Dihydro-2H-pyrido[3,2-b][1,4]oxazin-7-yl)-3′-fluorobiphenyl-2-sulfonamide]
2 nM	37 nM			C[C@@H](CO)NS(=O)(=O)c1ccccc1-c1ccc(-c2cnc3c(c2)OCCN3)c(F)c1 [Example 388, 4′-(3,4-Dihydro-2H-pyrido[3,2-b][1,4]oxazin-7-yl)-3′-fluoro-N-[(1S)-2-hydroxy-1-methylethyl]biphenyl-2-sulfonamide]
2 nM	56 nM			CCN(CC)S(=O)(=O)c1ccccc1-c1ccc(-c2cnc3c(c2)OCCN3)c(F)c1 [Example 391, 4′-(3,4-Dihydro-2H-pyrido[3,2-b][1,4]oxazin-7-yl)-N,N-diethyl-3′-fluorobiphenyl-2-sulfonamide]
1 nM	16 nM			O=S1(=O)CCN(S(=O)(=O)c2ccccc2-c2ccc(-c3cnc4c(c3)OCCN4)c(F)c2)CC1 [Example 392, 7-{2′-[(1,1-Dioxidothiomorpholin-4-yl)sulfonyl]-3-fluorobiphenyl-4-yl}-3,4-dihydro-2H-pyrido[3,2-b][1,4]oxazine]
1 nM	12 nM			CC(C)(C)NS(=O)(=O)c1ccccc1-c1ccc(-c2cnc3c(c2)OCCN3)c(F)c1 [Example 393, N-tert-Butyl-4′-(3,4-dihydro-2H-pyrido[3,2-b][1,4]oxazin-7-yl)-3′-fluorobiphenyl-2-sulfonamide]

Ki (human FLAP; [2])	IC50 [1, 3]	Ki (human FLAP; wild type FLAP)	IC50 [1, 4]	Structure (SMILES)
		9 nM	32 nM	CC(C)S(=O)(=O)c1ncccc1-c1ccc(-c2cnc(N)cn2)c(F)c1 [Example 395, 5-(2-Fluoro-4-{2-[(1-methylethyl)sulfonyl]pyridin-3-yl}phenyl)pyrazin-2-amine]
		8 nM	137 nM	CC(C)Sc1ncccc1-c1ccc(-c2cnc(N)cn2)c(F)c1 [Example 396, 5-(2-Fluoro-4-{2-[(1-methylethyl)sulfanyl]pyridin-3-yl}phenyl)pyrazin-2-amine]
		34 nM	1130 nM	CC(C)COc1ncccc1-c1ccc(-c2cnc3[nH]ccc3n2)c(F)c1 [Example 398, 2-{2-Fluoro-4-[2-(2-methylpropoxy)pyridin-3-yl]phenyl}-5H-pyrrolo[2,3-b]pyrazine]
		28 nM	358 nM	CC(C)Oc1ncccc1-c1ccc(-c2cnc3[nH]ccc3n2)c(F)c1 [Example 399, 2-{2-Fluoro-4-[2-(1-methylethoxy)pyridin-3-yl]phenyl}-5H-pyrrolo[2,3-b]pyrazine]
		158 nM	538 nM	CC(C)Oc1ncccc1-c1ccc(-c2cnc(N)cn2)c(F)c1 [Example 401, 5-{2-Fluoro-4-[2-(1-methylethoxy)pyridin-3-yl]phenyl}pyrazin-2-amine]
		92 nM	522 nM	Nc1cnc(-c2ccc(-c3cccnc3OC3CCCC3)cc2F)cn1 [Example 402, 5-{4-[2-(Cyclopentyloxy)pyridin-3-yl]-2-fluorophenyl}pyrazin-2-amine]
		155 nM	1490 nM	COc1ncccc1-c1ccc(-c2cnc(N)cn2)c(F)c1 [Example 404, 5-[2-Fluoro-4-(2-methoxypyridin-3-yl)phenyl]pyrazin-2-amine]
		100 nM	2710 nM	Nc1cnc(-c2ccc(-c3cccnc3OC3CCC3)cc2F)cn1 [Example 405, 5-{4-[2-(Cyclobutyloxy)pyridin-3-yl]-2-fluorophenyl}pyrazin-2-amine]
		135 nM	4310 nM	CC(C)(C)OC(=O)N1CCC(COc2ncccc2-c2ccc(-c3cnc(N)cn3)c(F)c2)C1 (stereo not drawn) [Example 406, tert-Butyl 3-[({3-[4-(5-aminopyrazin-2-yl)-3-fluorophenyl]pyridin-2-yl}oxy)methyl]pyrrolidine-1-carboxylate]
		128 nM	1140 nM	CC(C)Oc1ncccc1-c1ccc(-c2cnc(N)nc2)c(F)c1 [Example 408, 5-{2-Fluoro-4-[2-(1-methylethoxy)pyridin-3-yl]phenyl}pyrimidin-2-amine]
		36 nM	1970 nM	N#Cc1nc(-c2ccc(-c3ccccc3S(=O)(=O)C3CC3)cc2F)cnc1N [Example 411, 3-Amino-6-[2′-(cyclopropylsulfonyl)-3-fluorobiphenyl-4-yl]pyrazine-2-carbonitrile]
		108 nM	726 nM	CC(C)(C)NS(=O)(=O)c1ccccc1-c1ccc(-c2ccc(N)nn2)c(F)c1 [Example 417, 4′-(6-Aminopyridazin-3-yl)-N-tert-butyl-3′-fluorobiphenyl-2-sulfonamide]
		86 nM	3280 nM	CC(C)(C)NS(=O)(=O)c1ccccc1-c1ccc(-c2ccc3nccnc3c2)c(F)c1 [Example 420, N-tert-Butyl-3′-fluoro-4′-quinoxalin-6-ylbiphenyl-2-sulfonamide]
		3 nM	146 nM	CC(C)(C)NS(=O)(=O)c1ccccc1-c1ccc(-c2ccc3[nH]cnc3c2)c(F)c1 [Example 422, 4′-(1H-Benzimidazol-5-yl)-N-tert-butyl-3′-fluorobiphenyl-2-sulfonamide]
		284 nM	4800 nM	CNS(=O)(=O)c1ccccc1-c1ccc(-c2ccc3[nH]cnc3c2)c(F)c1 [Example 423, 4′-(1H-Benzimidazol-5-yl)-3′-fluoro-N-methylbiphenyl-2-sulfonamide]
		10 nM	> 10000 nM	CC(C)(C)NS(=O)(=O)c1ccccc1-c1ccc(-c2ccc3scnc3c2)c(F)c1 [Example 424, 4′-(1,3-Benzothiazol-5-yl)-N-tert-butyl-3′-fluorobiphenyl-2-sulfonamide]
		2 nM	111 nM	CC(C)(C)NS(=O)(=O)c1ccccc1-c1ccc(-c2cnc3cc[nH]c3c2)c(F)c1 [Example 425, N-tert-Butyl-3′-fluoro-4′-(1H-pyrrolo[3,2-b]pyridin-6-yl)biphenyl-2-sulfonamide]
		2 nM	73 nM	CNS(=O)(=O)c1ccccc1-c1ccc(-c2cnc3[nH]ccc3c2)c(F)c1 [Example 426, 3′-Fluoro-N-methyl-4′-(1H-pyrrolo[2,3-b]pyridin-5-yl)biphenyl-2-sulfonamide]
